Assay results from the CheMixHub viscosity set.

Assay: xn = mol fraction of the nth substance listed

CNc1ccccc1 + O=[N+]([O-])c1ccccc1
Conditions | viscosity [mPa·s]
303.15 K, 101.3 kPa, x1 = 0.5 | 1.52

Oc1ccccc1 + O=[N+]([O-])c1ccccc1
293.15 K, 101 kPa
Conditions | viscosity [mPa·s]
x1 = 0.0537 | 1.975
x1 = 0.113 | 2.041
x1 = 0.2245 | 2.208
x1 = 0.3306 | 2.46
x1 = 0.4448 | 2.845
x1 = 0.5641 | 3.53
x1 = 0.6497 | 4.19
x1 = 0.7623 | 5.4
x1 = 0.8785 | 7.59

C1N2CN3CN1CN(C2)C3 + [2H]O[2H]
viscosity [mPa·s], 101 kPa
Conditions | x1 = 0.004002 | x1 = 0.007971 | x1 = 0.01158 | x1 = 0.01549 | x1 = 0.01969
293.15 K | 1.217 | 1.252 | 1.311 | 1.396 | 1.515
298.15 K | 1.106 | 1.141 | 1.189 | 1.258 | 1.35
300.15 K | 1.007 | 1.036 | 1.077 | 1.135 | 1.219
305.15 K | 0.92 | 0.962 | 1.002 | 1.049 | 1.108

O=S(=O)([O-])[O-].[Li+].[Li+] + [2H]O[2H]
viscosity [mPa·s], 101 kPa
Conditions | x1 = 0.005 | x1 = 0.016 | x1 = 0.032 | x1 = 0.052
298.15 K | 1.243 | 1.74 | 2.887 | 5.343
308.15 K | 0.975 | 1.355 | 2.216 | 3.964
318.15 K | 0.802 | 1.102 | 1.77 | 3.084

COCCOCCOC + c1ccc2c(c1)CCCC2
viscosity [mPa·s], 101.33 kPa
Conditions | x1 = 0.1028 | x1 = 0.1977 | x1 = 0.3019 | x1 = 0.3993 | x1 = 0.5009 | x1 = 0.666 | x1 = 0.7016 | x1 = 0.7949 | x1 = 0.8987
298.15 K | 1.786 | 1.637 | 1.5 | 1.396 | 1.294 | 1.197 | 1.144 | 1.087 | 1.032
303.15 K | 1.619 | 1.487 | 1.367 | 1.275 | 1.185 | 1.071 | 1.05 | 1 | 0.95
308.15 K | 1.472 | 1.355 | 1.249 | 1.17 | 1.087 | 0.984 | 0.967 | 0.922 | 0.879
313.15 K | 1.348 | 1.245 | 1.15 | 1.078 | 1.004 | 0.913 | 0.897 | 0.859 | 0.815

CC=CC(=O)O + c1ccccc1
viscosity [mPa·s], 101 kPa
Conditions | 298.15 K | 303.15 K | 313.15 K | 323.15 K
x1 = 0.0503 | 0.6275 | 0.5854 | 0.5132 | 0.4526
x1 = 0.102 | 0.6591 | 0.6129 | 0.5349 | 0.472
x1 = 0.1492 | 0.6902 | 0.6364 | 0.5555 | 0.4889

CCCCCCN + c1ccccc1
303.15 K, 101 kPa
Conditions | viscosity [mPa·s]
x2 = 0.105 | 0.6977
x2 = 0.2983 | 0.645
x2 = 0.4918 | 0.6006
x2 = 0.5946 | 0.5814
x2 = 0.6955 | 0.5639
x2 = 0.7954 | 0.5506
x2 = 0.8997 | 0.549

CNc1ccccc1 + c1ccccc1
298.15 K, 101 kPa
Conditions | viscosity [mPa·s]
x2 = 0.069 | 1.851
x2 = 0.11 | 1.728
x2 = 0.17 | 1.601
x2 = 0.264 | 1.433
x2 = 0.376 | 1.226
x2 = 0.387 | 1.202
x2 = 0.428 | 1.156
x2 = 0.513 | 1.055
x2 = 0.582 | 0.966
x2 = 0.697 | 0.842
x2 = 0.802 | 0.747
x2 = 0.852 | 0.71
x2 = 0.93 | 0.656

OC(C(F)(F)F)C(F)(F)F + c1ccccc1
viscosity [mPa·s], 101 kPa
Conditions | x1 = 0.04927 | x1 = 0.1096 | x1 = 0.1764 | x1 = 0.2481 | x1 = 0.3333 | x1 = 0.4173 | x1 = 0.5478 | x1 = 0.6489 | x1 = 0.8774
298.15 K | 0.595 | 0.589 | 0.583 | 0.585 | 0.612 | 0.648 | 0.743 | 0.834 | 1.216
313.15 K | 0.481 | 0.475 | 0.466 | 0.471 | 0.486 | 0.508 | 0.561 | 0.617 | 0.818
323.15 K | 0.425 | 0.423 | 0.412 | 0.414 | 0.425 | 0.441 | 0.482 | 0.521 | 0.658

Oc1ccccc1 + c1ccccc1
Conditions | viscosity [mPa·s]
293.15 K, 101 kPa, x1 = 0.0507 | 0.683
293.15 K, 101 kPa, x1 = 0.0831 | 0.724
293.15 K, 101 kPa, x1 = 0.1719 | 0.865
293.15 K, 101 kPa, x1 = 0.2846 | 1.126
293.15 K, 101 kPa, x1 = 0.3763 | 1.401
293.15 K, 101 kPa, x1 = 0.4837 | 1.911
293.15 K, 101 kPa, x1 = 0.5924 | 2.642
293.15 K, 101 kPa, x1 = 0.7038 | 3.811
293.15 K, 101 kPa, x1 = 0.8043 | 5.35
298.15 K, 101.33 kPa, x1 = 0.083 | 0.6592
298.15 K, 101.33 kPa, x1 = 0.181 | 0.8516
298.15 K, 101.33 kPa, x1 = 0.2 | 0.841
298.15 K, 101.33 kPa, x1 = 0.239 | 0.9218
298.15 K, 101.33 kPa, x1 = 0.279 | 1.037
298.15 K, 101.33 kPa, x1 = 0.37 | 1.157
298.15 K, 101.33 kPa, x1 = 0.478 | 1.696
298.15 K, 101.33 kPa, x1 = 0.5 | 1.711
298.15 K, 101.33 kPa, x1 = 0.522 | 1.849
298.15 K, 101.33 kPa, x1 = 0.619 | 2.54
298.15 K, 101.33 kPa, x1 = 0.658 | 2.783
298.15 K, 101.33 kPa, x1 = 0.692 | 3.172
298.15 K, 101.33 kPa, x1 = 0.762 | 3.936
298.15 K, 101.33 kPa, x1 = 0.786 | 4.424
323.15 K, 101.33 kPa, x1 = 0.2 | 0.568
323.15 K, 101.33 kPa, x1 = 0.5 | 0.968

O=C1NC(=O)c2ccccc21 + c1ccncc1
298.15 K, 101 kPa
Conditions | viscosity [mPa·s]
x1 = 0.0278 | 0.9878
x1 = 0.06788 | 1.182

Oc1ccccc1 + c1ccncc1
viscosity [mPa·s], 101 kPa
Conditions | 293.15 K | 303.15 K | 313.15 K
x1 = 0.0707 | 1.109 | 0.94 | 0.828
x1 = 0.1391 | 1.321 | 1.106 | 0.965
x1 = 0.213 | 1.597 | 1.339 | 1.152
x1 = 0.2888 | 2.01 | 1.634 | 1.389
x1 = 0.349 | 2.411 | 1.963 | 1.631
x1 = 0.4283 | 3.215 | 2.515 | 2.042
x1 = 0.5063 | 4.37 | 3.245 | 2.56
x1 = 0.5971 | 5.945 | 4.29 | 3.245
x1 = 0.6675 | 7.48 | 5.17 | 3.8
x1 = 0.7481 | 9.07 | 6.04 | 4.305
x1 = 0.8284 | 10.04 | 6.625 | 4.59
x1 = 0.9114 | 10.72 | 6.915 | 4.705
